Drawing on ChEMBL document CHEMBL3431459, “Roche carnitine palmitoyltransferase modulator screening data (supplementary data associated with the publication CHEMBL2216752)”, this text covers IC50 for 16 compounds.

Some results are limits rather than exact numbers.

Test [1] concerns the target T1, Carnitine O-palmitoyltransferase 1, muscle isoform (Homo sapiens, UniProt Q92523).
T1 sequence (Q92523 whole entry): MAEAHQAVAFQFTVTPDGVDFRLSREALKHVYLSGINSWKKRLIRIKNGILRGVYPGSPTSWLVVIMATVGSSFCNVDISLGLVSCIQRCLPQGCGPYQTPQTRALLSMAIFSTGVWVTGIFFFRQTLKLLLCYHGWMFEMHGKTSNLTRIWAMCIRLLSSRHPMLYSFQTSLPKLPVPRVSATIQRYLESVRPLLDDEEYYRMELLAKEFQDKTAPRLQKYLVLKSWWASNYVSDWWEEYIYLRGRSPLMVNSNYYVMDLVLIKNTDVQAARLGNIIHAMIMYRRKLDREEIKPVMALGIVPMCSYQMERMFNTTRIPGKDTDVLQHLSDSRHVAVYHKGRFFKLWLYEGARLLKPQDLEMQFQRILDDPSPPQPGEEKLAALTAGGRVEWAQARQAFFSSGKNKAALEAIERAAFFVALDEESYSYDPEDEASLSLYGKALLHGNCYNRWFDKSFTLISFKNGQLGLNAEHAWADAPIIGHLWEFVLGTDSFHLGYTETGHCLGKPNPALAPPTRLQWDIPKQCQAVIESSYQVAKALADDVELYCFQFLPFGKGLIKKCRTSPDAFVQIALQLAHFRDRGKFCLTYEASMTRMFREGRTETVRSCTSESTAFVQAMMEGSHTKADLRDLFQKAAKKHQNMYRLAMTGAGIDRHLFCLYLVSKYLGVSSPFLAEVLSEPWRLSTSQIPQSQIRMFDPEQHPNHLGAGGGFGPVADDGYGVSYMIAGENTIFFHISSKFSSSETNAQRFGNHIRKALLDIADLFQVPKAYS
Description: SUPPLEMENTARY: Inhibition of Carnitine palmitoyltransferase 1, muscle isoform. Set-up: species or system Muscle tissue.

For test [2], the target named is T2, Carnitine O-palmitoyltransferase 2, mitochondrial (Homo sapiens, UniProt P23786).
T2 sequence (P23786 whole entry): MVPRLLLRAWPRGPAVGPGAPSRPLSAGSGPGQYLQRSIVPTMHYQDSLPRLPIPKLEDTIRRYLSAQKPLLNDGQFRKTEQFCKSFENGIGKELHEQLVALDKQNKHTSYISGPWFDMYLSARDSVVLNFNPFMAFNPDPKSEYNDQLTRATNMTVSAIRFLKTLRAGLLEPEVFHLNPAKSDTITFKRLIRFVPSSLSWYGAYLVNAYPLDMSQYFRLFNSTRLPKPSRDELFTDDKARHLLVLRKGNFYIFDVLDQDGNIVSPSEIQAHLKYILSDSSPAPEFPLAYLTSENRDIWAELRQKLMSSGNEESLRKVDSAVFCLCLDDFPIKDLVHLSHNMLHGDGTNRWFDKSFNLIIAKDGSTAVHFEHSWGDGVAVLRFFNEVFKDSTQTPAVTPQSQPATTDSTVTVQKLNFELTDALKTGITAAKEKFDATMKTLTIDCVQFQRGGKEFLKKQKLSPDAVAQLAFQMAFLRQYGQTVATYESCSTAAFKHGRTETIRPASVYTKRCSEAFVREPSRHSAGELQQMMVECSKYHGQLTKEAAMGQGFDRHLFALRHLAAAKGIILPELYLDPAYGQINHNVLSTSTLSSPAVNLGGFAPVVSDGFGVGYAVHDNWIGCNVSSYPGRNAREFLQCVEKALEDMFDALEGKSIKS
Description: (§1) SUPPLEMENTARY: Inhibition of Carnitine palmitoyltransferase 2.

Test [3] deals with T3, Carnitine O-palmitoyltransferase 2, mitochondrial (Rattus norvegicus, UniProt P18886).
T3 sequence (P18886 whole entry): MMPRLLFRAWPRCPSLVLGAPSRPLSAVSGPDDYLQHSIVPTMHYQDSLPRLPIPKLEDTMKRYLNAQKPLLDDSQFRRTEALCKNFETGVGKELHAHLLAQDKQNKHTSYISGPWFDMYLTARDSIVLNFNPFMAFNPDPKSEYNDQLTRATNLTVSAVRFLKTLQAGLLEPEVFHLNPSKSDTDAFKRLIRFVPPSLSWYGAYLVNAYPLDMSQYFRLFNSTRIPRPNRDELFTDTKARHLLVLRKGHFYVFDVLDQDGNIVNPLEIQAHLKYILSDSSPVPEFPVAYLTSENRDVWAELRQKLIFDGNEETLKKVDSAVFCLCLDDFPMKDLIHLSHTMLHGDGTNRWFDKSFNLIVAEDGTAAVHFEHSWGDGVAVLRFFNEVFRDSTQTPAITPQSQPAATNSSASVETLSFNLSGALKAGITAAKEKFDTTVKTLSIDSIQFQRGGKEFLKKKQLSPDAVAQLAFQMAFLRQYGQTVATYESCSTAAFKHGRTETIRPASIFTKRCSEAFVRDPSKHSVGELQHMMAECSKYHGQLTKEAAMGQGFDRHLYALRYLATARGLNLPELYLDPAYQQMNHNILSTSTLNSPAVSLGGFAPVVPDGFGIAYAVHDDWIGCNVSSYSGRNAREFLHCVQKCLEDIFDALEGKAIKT
The description is as §1.

Test [4] addresses T4, Carnitine O-palmitoyltransferase 1, liver isoform (Homo sapiens, UniProt P50416).
T4 sequence (P50416 whole entry): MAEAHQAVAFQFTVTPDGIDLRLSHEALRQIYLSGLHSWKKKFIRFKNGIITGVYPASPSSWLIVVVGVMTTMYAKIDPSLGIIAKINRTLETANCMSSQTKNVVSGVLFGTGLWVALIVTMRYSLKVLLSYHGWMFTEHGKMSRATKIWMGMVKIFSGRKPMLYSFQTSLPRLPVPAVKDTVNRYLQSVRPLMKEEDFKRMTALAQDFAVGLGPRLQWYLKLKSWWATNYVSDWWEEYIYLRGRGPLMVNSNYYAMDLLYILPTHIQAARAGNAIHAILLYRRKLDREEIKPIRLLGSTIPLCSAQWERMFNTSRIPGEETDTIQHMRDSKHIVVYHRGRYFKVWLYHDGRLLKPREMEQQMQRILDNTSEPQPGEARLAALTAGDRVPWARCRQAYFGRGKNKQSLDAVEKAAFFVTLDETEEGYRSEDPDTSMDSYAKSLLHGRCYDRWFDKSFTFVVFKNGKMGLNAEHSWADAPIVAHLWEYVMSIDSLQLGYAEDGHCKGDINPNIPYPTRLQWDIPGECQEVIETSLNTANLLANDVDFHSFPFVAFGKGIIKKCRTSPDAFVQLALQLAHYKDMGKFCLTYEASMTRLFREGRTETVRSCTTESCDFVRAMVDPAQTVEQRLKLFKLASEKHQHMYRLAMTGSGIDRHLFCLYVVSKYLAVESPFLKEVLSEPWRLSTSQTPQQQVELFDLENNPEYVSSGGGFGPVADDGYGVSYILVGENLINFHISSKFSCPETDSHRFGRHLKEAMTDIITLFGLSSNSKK
Kind of test: (§2) SUPPLEMENTARY: Inhibition of Carnitine palmitoyltransferase 1, liver isoform.

For test [5], the target named is T5, Carnitine O-palmitoyltransferase 1, liver isoform (Rattus norvegicus, UniProt P32198).
T5 sequence (P32198 whole entry): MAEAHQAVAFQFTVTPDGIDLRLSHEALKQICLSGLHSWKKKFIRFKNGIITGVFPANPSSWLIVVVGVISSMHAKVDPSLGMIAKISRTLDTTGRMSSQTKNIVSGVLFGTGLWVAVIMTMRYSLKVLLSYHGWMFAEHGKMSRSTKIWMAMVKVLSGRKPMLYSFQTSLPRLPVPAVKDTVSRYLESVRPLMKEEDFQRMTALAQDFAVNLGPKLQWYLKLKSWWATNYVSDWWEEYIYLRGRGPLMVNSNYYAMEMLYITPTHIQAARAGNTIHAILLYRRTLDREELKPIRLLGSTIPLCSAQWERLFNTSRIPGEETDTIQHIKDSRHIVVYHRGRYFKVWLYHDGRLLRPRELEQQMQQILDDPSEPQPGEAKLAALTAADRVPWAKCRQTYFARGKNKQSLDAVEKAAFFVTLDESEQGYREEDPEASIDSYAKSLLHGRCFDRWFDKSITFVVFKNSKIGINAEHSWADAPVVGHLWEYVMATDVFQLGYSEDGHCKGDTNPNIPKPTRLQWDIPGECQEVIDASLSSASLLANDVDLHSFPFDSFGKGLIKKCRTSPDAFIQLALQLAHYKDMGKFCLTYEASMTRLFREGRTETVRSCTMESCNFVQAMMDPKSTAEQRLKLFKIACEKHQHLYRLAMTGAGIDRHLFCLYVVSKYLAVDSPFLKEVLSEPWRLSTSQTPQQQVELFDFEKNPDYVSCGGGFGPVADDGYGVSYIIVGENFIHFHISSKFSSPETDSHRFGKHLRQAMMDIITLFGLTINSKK
The test is described as §2.

The term IC50 denotes the concentration needed to halve the response being measured. With `O=C1Nc2ccc(-c3n[nH]c([C@H]4CCCCN4C(=O)COc4ccccc4)n3)cc2CO1`, the 50% inhibitory concentration (IC50) in test [1] was found to be 70.7 µM; in test [2], 26.4 µM; in test [3], 50.4 µM; in test [4], 223 nM; in test [5], 840 nM.
The corresponding values for `COc1ccc(Cl)cc1S(=O)(=O)N1CCSc2ccc(C(=O)Nc3ccc(C(=O)O)c(Cl)c3)cc21` are 1.52 µM, 4.36 µM, 10.6 µM, 87.4 nM and 124 nM.
On to `O=C1CCC(=O)N1c1cc(F)cc(-c2noc([C@H]3CCCCN3C(=O)COc3ccccc3)n2)c1`, for which the IC50 in test [1] is more than 100 µM; in test [2], 16.2 µM; in test [3] it was more than 100 µM; in test [4] it was 75.7 nM; in test [5], 386 nM.
For `O=C([C@H]1CCCCN1C(=O)COc1ccccc1)N1CCN(c2ccccn2)CC1`, the IC50 in test [1] was more than 100 µM; in test [2] it was 1.03 µM; in test [3], 3.35 µM; in test [4], 238 nM; in test [5] it was 588 nM.
Take `O=C([C@H]1CCCCN1C(=O)COc1ccccc1)N1CCN(c2ncccn2)CC1`: the IC50 was more than 100 µM in test [1]; 1.56 µM in test [2]; 2.61 µM in test [3]; 167 nM in test [4]; 322 nM in test [5].
In the case of `O=C([C@H]1CCCCN1C(=O)COc1ccccc1)N1CCN(c2cc(Cl)cc(Cl)c2)CC1`, the 50% inhibitory concentration (IC50) in test [1] is more than 100 µM; in test [2] it was 3.13 µM; in test [3] it was 0.961 µM; in test [4], 198 nM; in test [5], 388 nM.
As for `O=C([C@H]1CCCCN1C(=O)COc1ccccc1)N1CCN(c2cccc(Cl)c2)CC1`, the IC50 in test [1] is more than 100 µM; in test [2], 0.544 µM; in test [3], 0.291 µM; in test [4] it was 151 nM; in test [5], 233 nM.
Consider `Cc1ccnc(N2CCN(C(=O)[C@H]3CCCCN3C(=O)COc3ccccc3)CC2)c1`, for which the IC50 in test [1] stood at 31.7 µM; in test [2], 0.586 µM; in test [3] it was 1.27 µM; in test [4] it was 124 nM; in test [5] it was 196 nM.
For `O=C(COc1ccccc1)N1CCCC[C@@H]1c1nc(-c2ccc(Cl)cc2)cs1`, in that order: more than 100 µM, more than 100 µM, more than 100 µM, 1380 nM and 1230 nM.
Take `COc1ccc(Cl)cc1S(=O)(=O)c1c2cc(C(=O)Nc3ccccc3)ccc2nn1C`: the half-inhibitory concentration (IC50) was more than 100 µM in test [1]; more than 100 µM in test [2]; more than 100 µM in test [3]; 162 nM in test [4]; 381 nM in test [5].
Turning to `COc1ccc(Cl)cc1S(=O)(=O)c1n[nH]c2ccc(C(=O)Nc3ccccc3)cc12`, the IC50 in test [1] is more than 100 µM; in test [2], more than 100 µM; in test [3], more than 100 µM; in test [4], 172 nM; in test [5] it was 102 nM.
In the case of `O=C([C@H]1CCCCN1C(=O)COc1ccccc1)N1Cc2ccc(OC3CCOCC3)cc2C1`, the half-inhibitory concentration (IC50) was more than 100 µM in test [1]; 0.193 µM in test [2]; 0.643 µM in test [3]; 103 nM in test [4]; 72.7 nM in test [5].
For the compound `O=C([C@H]1CCCCN1C(=O)COc1ccccc1)N1Cc2ccc(O[C@H]3CCOC3)cc2C1`, the IC50 was more than 100 µM in test [1]; 0.551 µM in test [2]; 1.33 µM in test [3]; 118 nM in test [4]; 35.7 nM in test [5].
The corresponding values for `O=C(O)c1ccccc1CCc1ccc(NS(=O)(=O)c2ccc(Cl)cc2)cc1` are more than 100 µM, more than 100 µM, 28 µM, more than 10000 nM and more than 10000 nM.
The corresponding values for `COc1ccc(Cl)cc1[S+]([O-])c1c[nH]c2ccc(C(=O)Nc3ccccc3)cc12` (stereo not given) are more than 100 µM, more than 100 µM, more than 100 µM, more than 10000 nM and more than 10000 nM.
For `COc1ccc(Cl)cc1S(=O)(=O)N1C[C@@H](C(=O)O)Oc2ccc(C(=O)Nc3ccccc3)cc21`, the IC50 in test [1] is 16.9 µM; in test [2] it was more than 100 µM; in test [3], more than 100 µM; in test [4], 40.2 nM; in test [5], 14.6 nM.
